From article PMC7181660, “A novel specific PERK activator reduces toxicity and extends survival in Huntington's disease models” (Scientific Reports, 2020)

Key:
Test in all cases: biochemical
Type in all cases: biochemical
panel of 391 kinases [1] = target: panel of 391 kinases (Homo sapiens, UniProt Q8IVH8); conditions: GLK/MAP4K3, MK-28 1 µM, ATP 1 µM
panel of 391 kinases [2] = target: panel of 391 kinases (Homo sapiens, UniProt P51451); conditions: BLK, MK-28 1 µM, ATP 1 µM
panel of 391 kinases [3] = target: panel of 391 kinases (Homo sapiens, UniProt P22694); conditions: PKAcb, MK-28 1 µM, ATP 1 µM
panel of 391 kinases [4] = target: panel of 391 kinases (Homo sapiens, UniProt P41743); conditions: PKCiota, MK-28 1 µM, ATP 1 µM
panel of 391 kinases [5] = target: panel of 391 kinases (Homo sapiens, UniProt Q12852); conditions: DLK/MAP3K12, MK-28 1 µM, ATP 1 µM
panel of 391 kinases [6] = target: panel of 391 kinases (Homo sapiens, UniProt Q9BUB5); conditions: MNK1, MK-28 1 µM, ATP 1 µM
panel of 391 kinases [7] = target: panel of 391 kinases (Homo sapiens, UniProt Q05655); conditions: PKCd, MK-28 1 µM, ATP 1 µM
panel of 391 kinases [8] = target: panel of 391 kinases (Homo sapiens, UniProt P78362); conditions: SRPK2, MK-28 1 µM, ATP 1 µM
panel of 391 kinases [9] = target: panel of 391 kinases (Homo sapiens, UniProt P22612); conditions: PKAcg, MK-28 1 µM, ATP 1 µM
panel of 391 kinases [10] = target: panel of 391 kinases (Homo sapiens, UniProt P57059); conditions: SIK1, MK-28 1 µM, ATP 1 µM
panel of 391 kinases [11] = target: T1, panel of 391 kinases (Homo sapiens, UniProt Q9NR20); conditions: DYRK4, MK-28 1 µM, ATP 1 µM
T1 sequence (Q9NR20 1-520): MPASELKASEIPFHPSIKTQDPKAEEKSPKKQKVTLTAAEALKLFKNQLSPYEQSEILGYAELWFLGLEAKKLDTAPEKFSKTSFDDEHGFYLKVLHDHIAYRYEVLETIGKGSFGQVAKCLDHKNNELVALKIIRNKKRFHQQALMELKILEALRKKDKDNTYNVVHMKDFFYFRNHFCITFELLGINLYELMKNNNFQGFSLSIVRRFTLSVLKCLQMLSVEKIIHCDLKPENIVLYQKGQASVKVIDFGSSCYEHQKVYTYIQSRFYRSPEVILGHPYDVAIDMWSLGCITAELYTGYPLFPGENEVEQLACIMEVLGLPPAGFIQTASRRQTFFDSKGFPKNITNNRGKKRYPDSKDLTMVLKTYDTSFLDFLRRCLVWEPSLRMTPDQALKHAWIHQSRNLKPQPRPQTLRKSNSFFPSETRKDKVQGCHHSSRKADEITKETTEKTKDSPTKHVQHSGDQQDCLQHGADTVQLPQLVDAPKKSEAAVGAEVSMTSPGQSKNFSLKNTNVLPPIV

panel of 391 kinases [12] = target: panel of 391 kinases (Homo sapiens, UniProt P42685); conditions: FRK/PTK5, MK-28 1 µM, ATP 1 µM
panel of 391 kinases [13] = target: panel of 391 kinases (Homo sapiens, UniProt O43781); conditions: DYRK3, MK-28 1 µM, ATP 1 µM
panel of 391 kinases [14] = target: panel of 391 kinases (Homo sapiens, UniProt P23443); conditions: p70S6K/RPS6KB1, MK-28 1 µM, ATP 1 µM
panel of 391 kinases [15] = target: panel of 391 kinases (Homo sapiens, UniProt O94804); conditions: LOK/STK10, MK-28 1 µM, ATP 1 µM
panel of 391 kinases [16] = target: panel of 391 kinases (Homo sapiens, UniProt Q96QT4); conditions: kinase TRPM7/CHAK1, compound at 1 µM, single dose in duplicates, 1 µM ATP
panel of 391 kinases [17] = target: panel of 391 kinases (Homo sapiens, UniProt Q96BR1); conditions: SGK3/SGKL, MK-28 1 µM, ATP 1 µM
panel of 391 kinases [18] = target: panel of 391 kinases (Homo sapiens, UniProt Q8NEV4); conditions: MYO3A, MK-28 1 µM, ATP 1 µM
panel of 391 kinases [19] = target: panel of 391 kinases (Homo sapiens, UniProt P51955); conditions: NEK2, MK-28 1 µM, ATP 1 µM
panel of 391 kinases [20] = target: panel of 391 kinases (Homo sapiens, UniProt P07332); conditions: FES/FPS, MK-28 1 µM, ATP 1 µM
panel of 391 kinases [21] = target: panel of 391 kinases (Homo sapiens, UniProt O00444); conditions: PLK4/SAK, MK-28 1 µM, ATP 1 µM
panel of 391 kinases [22] = target: panel of 391 kinases (Homo sapiens, UniProt Q8N752); conditions: CK1a1L, MK-28 1 µM, ATP 1 µM
[23] = read-out: % Enzyme Activity (relative to DMSO controls)

## CN(/N=C\c1ccc(O)c(O)c1)c1nc(-c2ccccc2)cc(-c2ccccc2)n1 [MK-28]
Panel of 391 kinases [1]
  % Enzyme Activity (relative to DMSO controls): 94.50%
Panel of 391 kinases [1]; [23]
  remaining activity at 1 µM: 95.9%
Panel of 391 kinases [2]
  % Enzyme Activity (relative to DMSO controls): 82.35%
Panel of 391 kinases [2]; [23]
  remaining activity at 1 µM: 85.3%
Panel of 391 kinases [3]
  % Enzyme Activity (relative to DMSO controls): 95.23%
Panel of 391 kinases [3]; [23]
  remaining activity at 1 µM: 99.2%
Panel of 391 kinases [4]
  % Enzyme Activity (relative to DMSO controls): 105.00%
Panel of 391 kinases [4]; [23]
  remaining activity at 1 µM: 105%
Panel of 391 kinases [5]
  % Enzyme Activity (relative to DMSO controls): 122.20%
Panel of 391 kinases [5]; [23]
  remaining activity at 1 µM: 124%
Panel of 391 kinases [6]
  % Enzyme Activity (relative to DMSO controls): 114.65%
Panel of 391 kinases [6]; [23]
  remaining activity at 1 µM: 116%
Panel of 391 kinases [7]
  % Enzyme Activity (relative to DMSO controls): 97.74%
Panel of 391 kinases [7]; [23]
  remaining activity at 1 µM: 98.5%
Panel of 391 kinases [8]
  % Enzyme Activity (relative to DMSO controls): 102.82%
Panel of 391 kinases [8]; [23]
  remaining activity at 1 µM: 106%
Panel of 391 kinases [9]
  % Enzyme Activity (relative to DMSO controls): 92.94%
Panel of 391 kinases [9]; [23]
  remaining activity at 1 µM: 93.5%
Panel of 391 kinases [10]
  % Enzyme Activity (relative to DMSO controls): 83.98%
Panel of 391 kinases [10]; [23]
  remaining activity at 1 µM: 85%
Panel of 391 kinases [11]
  % Enzyme Activity (relative to DMSO controls): 99.42%
Panel of 391 kinases [11]; [23]
  remaining activity at 1 µM: 101%
Panel of 391 kinases [12]
  % Enzyme Activity (relative to DMSO controls): 100.16%
Panel of 391 kinases [12]; [23]
  remaining activity at 1 µM: 101%
Panel of 391 kinases [13]
  % Enzyme Activity (relative to DMSO controls): 96.41%
Panel of 391 kinases [13]; [23]
  remaining activity at 1 µM: 97.5%
Panel of 391 kinases [14]
  % Enzyme Activity (relative to DMSO controls): 97.34%
Panel of 391 kinases [14]; [23]
  remaining activity at 1 µM: 99%
Panel of 391 kinases [15]
  % Enzyme Activity (relative to DMSO controls): 100.78%
Panel of 391 kinases [15]; [23]
  remaining activity at 1 µM: 101%
Panel of 391 kinases [16]
  % Enzyme Activity (relative to DMSO controls): 102.70%
Panel of 391 kinases [16]; [23]
  remaining activity at 1 µM: 104%
Panel of 391 kinases [17]
  % Enzyme Activity (relative to DMSO controls): 103.83%
Panel of 391 kinases [17]; [23]
  remaining activity at 1 µM: 105%
Panel of 391 kinases [18]
  % Enzyme Activity (relative to DMSO controls): 104.11%
Panel of 391 kinases [18]; [23]
  remaining activity at 1 µM: 104%
Panel of 391 kinases [19]
  % Enzyme Activity (relative to DMSO controls): 98.55%
Panel of 391 kinases [19]; [23]
  remaining activity at 1 µM: 99.2%
Panel of 391 kinases [20]
  % Enzyme Activity (relative to DMSO controls): 91.44%
Panel of 391 kinases [20]; [23]
  remaining activity at 1 µM: 95.1%
Panel of 391 kinases [21]
  % Enzyme Activity (relative to DMSO controls): 92.07%
Panel of 391 kinases [21]; [23]
  remaining activity at 1 µM: 94.7%
Panel of 391 kinases [22]
  % Enzyme Activity (relative to DMSO controls): 99.36%
Panel of 391 kinases [22]; [23]
  remaining activity at 1 µM: 100%
